Measured values taken from patent US11661437B2, “Steroid derivative regulators, method for preparing the same, and uses thereof” (priority 2018, dated 2023).
Read-outs that look alike come from different tables or passages of the source.

Experiments:
GABA-A receptor = test: 35S-TBPS binding assay on rat cerebral cortex cell membrane; set-up: species or system Sprague-Dawley rat; details: 2 nM 35S-TBPS, GABA added, read-out: 35S-TBPS bindng test, IC50 on inhibiting the TBPS binding activity
In short: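 Male Sprague-Dawley rat cortical membranes in PBS were preincubated 5 min at 25 °C with compound (8-point 3-fold series […], 1% DMSO), then with GABA ([…]). 2 nM 35S-TBPS was added for 20 h at 4 °C, followed by GF/C filtration and scintillation counting. % inhibition was normalised to DMSO and 10 μM reference controls, with IC50 from a 4-parameter fit.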

[1] = Pharmacokinetic assay in Balb/c mice (plasma and brain tissue); format: in vivo; details: male, mouse, po
Procedure: Balb/c mice were used as test animals. The pharmacokinetic behavior in mice (plasma and brain tissue) of the compounds of Example 2, Example 5, Example 7, Example 12, Example 18, Example 23, Example 26, Example 38, Example 41, Example 50, Example 51 and Example 66 orally administrated at a dose of 5 mg/kg was studied.
Each group had 24 male Balb/c mice. After an overnight fast, Balb/c mice were administrated p.o. with the test compound at an administration dose of 5 mg/kg and an administration volume of 10 mL/kg.
0.2 ml of blood was taken from the heart before administration and at 0, 0.5, 1, 2, 4, 6, 8 and 24 hours after administration. The samples were stored in EDTA-K2 tubes, and centrifuged for 6 minutes at 4° C., 6000 rpm to separate the plasma. The plasma samples were stored at −80° C. The mice were sacrificed with CO2, and the whole brain tissue was taken out, weighed, placed in a 2 mL centrifuge tube and stored at −80° C.
1) 160 μL of acetonitrile was added to 40 μL of the plasma sample for precipitation, and then the mixture was centrifuged for 5-20 minutes at 3500×g.
2) 90 μL of acetonitrile containing the internal standard (100 ng/mL) was added to 30 μL of the plasma and brain homogenate samples for precipitation, and then the mixture was centrifuged for 8 minutes at 13000 rpm.
3) 70 μL of the treated supernatant was taken and added to 70 μL of water, and mixed by vortex for 10 minutes. 20 μL of the mixture was taken to analyze the concentration of the test compound by LC/MS/MS. LC/MS/MS analysis instrument: AB Sciex API 4000 Qtrap.
2.6 Liquid Chromatography Analysis • Liquid chromatography condition: Shimadzu LC-20AD pump. • Chromatographic column: Agilent ZORBAX XDB-C18 (50×2.1 mm, 3.5 μm); Mobile phase: Eluent A was 0.1% formic acid in water, and Eluent B was acetonitrile. • Flow rate: 0.4 mL/min • Elution time: 0-4.0 minutes the eluent is as follows:
The main parameters of pharmacokinetics were calculated by WinNonlin 6.1.

[2] = Balb/c, in vivo, 5 mg/kg, Area under curve AUC0-t
[3] = Balb/c, in vivo, 5 mg/kg, Half-life t1/2
[4] = Balb/c, in vivo, 5 mg/kg, Mean residence time MRT
[5] = Balb/c, in vivo, 5 mg/kg, Peak time tmax
[6] = Balb/c, in vivo, 5 mg/kg, Plasma concentration Cmax

SMILES | IC50 (GABA-A receptor) | Area under curve AUC0-t ([1]; Balb/c, in vivo, 5 mg/kg) | Half-life t1/2 ([1]; Balb/c, in vivo, 5 mg/kg) | Mean residence time MRT ([1]; Balb/c, in vivo, 5 mg/kg) | Plasma concentration Cmax ([1]; Balb/c, in vivo, 5 mg/kg) | AUC(0-t) [1, 2] | half-life [1, 3] | MRT [1, 4] | Tmax [1, 5] | Cmax [1, 6] | also measured
C[C@@]1(O)CC[C@@]2(F)[C@H](CC[C@H]3[C@@H]4CC[C@H](C(=O)Cn5cc(C#N)cn5)[C@@]4(C)CC[C@@H]32)C1 [Example 2, 1-(2-((3R,5R,8S,9S,10R,13S,14S,17S)-10-Fluoro-3-hydroxy-3,13-dimethylhexadecahydro-1H-cyclopenta[a]phenanthren-17-yl)-2-oxoethyl)-1H-pyrazole-4-carbonitrile] | 11.8 nM | – | – | – | – | – | – | – | – | – | AUC(0-t) ([1]; Balb/c, brain, 5 mg/kg, Balb/c mice, 5 mg/kg p.o., brain tissue, read-out: Area under curve AUC0-t): 1770 ng·h/mL; AUC(0-inf) ([1]; Balb/c, brain, 5 mg/kg, Balb/c mice, 5 mg/kg p.o., brain tissue, read-out: Area under curve AUC0-∞): 1790 ng·h/mL; half-life ([1]; Balb/c, brain, 5 mg/kg, Balb/c mice, 5 mg/kg p.o., brain tissue, read-out: Half-life t1/2 (converted)): 1.49 h; MRT ([1]; Balb/c, brain, 5 mg/kg, Balb/c mice, 5 mg/kg p.o., brain tissue, read-out: Mean residence time MRT): 2.26 h; Cmax ([1]; Balb/c, brain, 5 mg/kg, Balb/c mice, 5 mg/kg p.o., brain tissue, read-out: Plasma concentration Cmax): 655 ng/mL; AUC(0-t) ([1]; Balb/c, plasma, 5 mg/kg, Balb/c mice, 5 mg/kg p.o., plasma, read-out: Area under curve AUC0-t): 2660 ng·h/mL; AUC(0-inf) ([1]; Balb/c, plasma, 5 mg/kg, Balb/c mice, 5 mg/kg p.o., plasma, read-out: Area under curve AUC0-∞): 2710 ng·h/mL; half-life ([1]; Balb/c, plasma, 5 mg/kg, Balb/c mice, 5 mg/kg p.o., plasma, read-out: Half-life t1/2 (converted)): 1.49 h; MRT ([1]; Balb/c, plasma, 5 mg/kg, Balb/c mice, 5 mg/kg p.o., plasma, read-out: Mean residence time MRT): 2.49 h; Cmax ([1]; Balb/c, plasma, 5 mg/kg, Balb/c mice, 5 mg/kg p.o., plasma, read-out: Plasma concentration Cmax): 846 ng/mL; Tmax ([1]; Balb/c mice, 5 mg/kg p.o., brain tissue, read-out: Peak time tmax): 1 h; Tmax ([1]; Balb/c mice, 5 mg/kg p.o., plasma, read-out: Peak time tmax): 1 h
C[C@@]1(O)CC[C@@]2(F)[C@H](CC[C@H]3[C@@H]4CC[C@H](C(=O)Cn5ccc(C(F)(F)F)n5)[C@@]4(C)CC[C@@H]32)C1 [Example 5, 1-((3R,5R,8S,9S,10R,13S,14S,17S)-10-Fluoro-3-hydroxy-3,13-dimethylhexadecahydro-1H-cyclopenta[a]phenanthren-17-yl)-2-(3-(trifluoromethyl)-1H-pyrazol-1-yl)ethan-1-one] | 8.3 nM | 470.9 ng·h/mL | 0.94 h | 1.74 h | 233.7 ng/mL | 515 ng·h/mL | 1.16 h | 1.94 h | 0.5 h | 242 ng/mL | Area under curve AUC0-∞ ([1]; Balb/c, in vivo, 5 mg/kg): 485.5 ng·h/mL; AUC(0-inf) ([1]; Balb/c, in vivo, 5 mg/kg, Area under curve AUC0-∞): 524 ng·h/mL
C[C@@]1(O)CC[C@@]2(F)[C@H](CC[C@H]3[C@@H]4CC[C@H](C(=O)CNc5ccc(F)cc5)[C@@]4(C)CC[C@@H]32)C1 [Example 23, 1-((3R,5R,8S,9S,10R,13S,14S,17S)-10-Fluoro-3-hydroxy-3,13-dimethylhexadecahydro-1H-cyclopenta[a]phenanthren-17-yl)-2-((4-fluorophenyl)amino)ethan-1-one] | 30.9 nM | 1067.1 ng·h/mL | 1.36 h | 2.42 h | 558.0 ng/mL | 545 ng·h/mL | 1.08 h | 1.78 h | 0.5 h | 408 ng/mL | –
